Two molecules from patent US20180064738A1, “METHOD OF TREATING INFECTIONS USING SILOXANE DERIVATIVES” (priority 2014, published 2018) can be followed below.

The test system of one data set is IL-1. Description: Flow cytometry of skin cells for the inflammatory cytokine IL-1. Type of data set: in vivo, C57/BL6 mice. Conditions: Group II, DMBA alone. On the procedure:
These animals received no other treatment.
Flow cytometry analyses: The skin and some associated soft tissues on the backs of all mice were excised. Representative portions of the skin and dermis were prepared for flow cytometry analysis by being divided into single cell suspensins using a 100 μm cell strainer followed by centrifugation (1500 rpm, 10 mm). Analysis of cells for detection of the inflammatory cytokine IL-1 was performed by fixing, permeabilizing, and staining of cells and running flow cyctopmetry using a FACS Calibur BD Flow Cytometer.
A general note: In flow cytometry, cells or beads pass a laser one at a time.

Another data set has as its system shaved skin of mice. Description: Topical irritation and DMBA skin tumor study in mice. Particulars: Group II.
Data set [1] concerns human head and neck cancer cell line (HTB41/-43). Description: Intratumoral injection of head and neck cancer tumors in nude mice. Type of data set: in vivo. Particulars: tumors in the abdomen injected, over 10 days; K-21 at 5% by weight. How it is done:
Nude mice were injected with human head and neck cancer cell line (HTB41/-43). […] The size of the sham injected tumors grew most rapidly over 10 days.

Description for shaved skin of mice: K-21 was dissolved in acetone to enhance its ability to wet the shaved skin on the backs of experimental mice. Mice in the positive control group were treated with a topical chemical carcinogenic agent, dimethybena(α)anthracene (DMBA), dissolved in acetone.
Thirty adult C57/BL6 mice were randomly divided into three groups of ten animals each to evaluate the topical irritation and potential anti-inflammatory properties of K-21. The hair on the back of all mice were shaved off with electric clippers.
Group 1 animals received topical application of K-21 (100 μg/100 μL) in acetone twice a week for two weeks (days 3, 6, 9, and 12) over the shaved area. These animals received no other treatment. Group II mice received a topical single dose of DMBA (100 μg/100 μL) in acetone over the shaved skin on the animals back on day 7. Group III animals received the same treatment as Group II mice on day 7 plus they were treated with topical K-21, twice a week before (days 3, 6) and one week after (days 9 and 12) a single DMBA application on day 7.
All animals were weighed daily, before and during the study to compare the weight gains of animals in all three groups. The behavior (eating, drinking, etc.) was monitored on a daily basis to determine if there was any gross skin irritation or initiation of tumors. […]

Regarding `Cc1c2ccccc2c(C)c2c1ccc1ccccc12` [DMBA, dimethybena(α)anthracene], the “IL-1 positive cells of the total number of cells” value in the data set on IL-1 is on record as 6%. Further, in the data set on shaved skin of mice (single topical dose of DMBA on day 7, sacrificed day 14), the tumor formation result was “Tumors formed in all ten”. In addition, the tumor diameter result in the data set with shaved skin of mice (single topical dose of DMBA, day 14) is “about 0.5 cm”.
Consider `N.N.[Cl][Pt][Cl]` [Cisplatin], for which the tumor growth result in data set [1] is listed as “grew the least”.
